Measured values as given in ChEMBL document CHEMBL1268834, “Expansion of SAR studies on triaryl bis sulfone cannabinoid CB2 receptor ligands” (Bioorg Med Chem Lett, 2010).

Legend:
Cannabinoid receptor 2 = Cannabinoid receptor 2 (Homo sapiens, UniProt P34972); experiment: Inhibition of beta-arrestin binding to recombinant cannabinoid CB2 receptor
[1] = Selectivity ratio of Ki for recombinant cannabinoid CB1 receptor to Ki for recombinant cannabinoid CB2 receptor
[2] = AUC in rat at 10 mg/kg; type: ADME, organism-based; design: dose 10 mg/kg; conditions: plasma

Cannabinoid receptor 2, sequence (P34972 whole entry): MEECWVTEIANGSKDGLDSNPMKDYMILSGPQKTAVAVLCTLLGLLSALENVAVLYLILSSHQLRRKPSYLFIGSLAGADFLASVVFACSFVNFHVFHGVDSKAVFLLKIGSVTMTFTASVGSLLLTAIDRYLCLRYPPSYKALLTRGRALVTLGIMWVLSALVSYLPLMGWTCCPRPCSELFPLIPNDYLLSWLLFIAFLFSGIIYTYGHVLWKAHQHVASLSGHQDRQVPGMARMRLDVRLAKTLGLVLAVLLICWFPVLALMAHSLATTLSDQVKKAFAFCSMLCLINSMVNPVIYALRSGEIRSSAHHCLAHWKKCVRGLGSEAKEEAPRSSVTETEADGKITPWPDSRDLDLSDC

| SMILES | Ki (Cannabinoid receptor 2) [nM] | Ratio Ki [1] | AUC [2] [µM·h] |
| --- | --- | --- | --- |
| O=S(=O)(c1ccccc1F)c1occc1S(=O)(=O)N1CCC(CNS(=O)(=O)C(F)(F)F)CC1 | 1.4 | 4520 |  |
| O=S(=O)(c1cc2ccccc2n1S(=O)(=O)c1cccnc1)N1CCC(CNS(=O)(=O)C(F)(F)F)CC1 | 41 | 139 |  |
| CN(C)c1ncccc1S(=O)(=O)n1c(S(=O)(=O)N2CCC(CNS(=O)(=O)C(F)(F)F)CC2)cc2ccccc21 | 23 | 126 |  |
| CC(C)C1(CNS(=O)(=O)C(F)(F)F)CCCN(S(=O)(=O)c2cc3ccccc3n2S(=O)(=O)c2ccccc2F)C1 (configuration not stated) | 78 | 24 |  |
| C[C@@H](NS(=O)(=O)C(F)(F)F)c1ccc(S(=O)(=O)c2ccoc2S(=O)(=O)c2ccccc2F)cc1 | 4.4 | 2690 |  |
| C[C@H]1C[C@H](CNS(=O)(=O)C(F)(F)F)CCN1S(=O)(=O)c1cc2ccccc2n1S(=O)(=O)c1ccccc1F | 16 | 334 |  |
| C[C@@H](NS(=O)(=O)C(F)(F)F)c1ccc(S(=O)(=O)c2cc3ccccc3n2S(=O)(=O)c2ccccc2F)cc1 | 7.5 | 1340 |  |
| COc1ccc2c(c1)cc(S(=O)(=O)N1CCC(CNS(=O)(=O)C(F)(F)F)CC1)n2S(=O)(=O)c1ccccc1F | 0.8 | 5160 |  |
| O=S(=O)(c1cc2ccccc2n1S(=O)(=O)c1ccccc1F)N1C[C@@H]2[C@@H](CNS(=O)(=O)C(F)(F)F)[C@@H]2C1 | 9 | 279 |  |
| CCCC1(CNS(=O)(=O)C(F)(F)F)CCN(S(=O)(=O)c2cc3ccccc3n2S(=O)(=O)c2ccccn2)CC1 | 1.6 | 26400 | 17.6 |
| C[C@@H]1CN(S(=O)(=O)c2cc3ccccc3n2S(=O)(=O)c2ccccc2F)CC[C@H]1CNS(=O)(=O)C(F)(F)F | 0.5 | 2260 |  |
| COC1(CNS(=O)(=O)C(F)(F)F)CCN(S(=O)(=O)c2cc3cccnc3n2S(=O)(=O)c2ccccc2F)CC1 | 2.5 | 3200 | 3.19 |
| CCC1(CNS(=O)(=O)C(F)(F)F)CCN(S(=O)(=O)c2cc3cc(F)ccc3n2S(=O)(=O)c2ccccc2F)CC1 | 0.4 | 2800 | 3.77 |
| O=S(=O)(c1cc2ccccc2n1S(=O)(=O)c1ccccc1F)N1CCCC(CCNS(=O)(=O)C(F)(F)F)C1 (configuration not stated) | 258 | 3 |  |
| Cn1c(S(=O)(=O)c2ccccc2F)c(S(=O)(=O)N2CCC(CNS(=O)(=O)C(F)(F)F)CC2)c2ccccc21 | 70 | 364 |  |
| C[C@@H](NS(=O)(=O)C(F)(F)F)c1ccc(S(=O)(=O)n2cccc2S(=O)(=O)c2ccccc2F)cc1 | 8.4 | 962 |  |
| O=S(=O)(c1cc2ccccc2n1S(=O)(=O)c1ccccn1)N1CCC(CNS(=O)(=O)C(F)(F)F)CC1 | 0.9 | 9180 |  |
| O=S(=O)(c1ccccc1F)c1ncccc1S(=O)(=O)N1CCC(CNS(=O)(=O)C(F)(F)F)CC1 | 790 | 126 |  |

Second part, the compound after the results:

| Ki (Cannabinoid receptor 2) [nM] | Ratio Ki [1] | AUC [2] [µM·h] | SMILES |
| --- | --- | --- | --- |
| 4.2 | 245 |  | CC1(C)CN(S(=O)(=O)c2cc3ccccc3n2S(=O)(=O)c2ccccc2F)CCC1CNS(=O)(=O)C(F)(F)F (configuration not stated) |
| 0.4 | 2080 |  | CC(NS(=O)(=O)C(F)(F)F)C1CCN(S(=O)(=O)c2cc3ccccc3n2S(=O)(=O)c2ccccc2F)CC1 (configuration not stated) |
| 249 | 11 |  | O=S(=O)(c1cc2ccccc2n1S(=O)(=O)c1ccccc1F)N1CC(CCNS(=O)(=O)C(F)(F)F)C1 |
| 171 | 171 |  | CC(C)(NS(=O)(=O)C(F)(F)F)C1CCN(S(=O)(=O)c2cc3ccccc3n2S(=O)(=O)c2ccccc2F)CC1 |
| 0.4 | 3500 | 4.56 | O=S(=O)(c1cc2ccccc2n1S(=O)(=O)c1ccccn1)N1CCC2(CC1)C[C@@H]2NS(=O)(=O)C(F)(F)F |
| 0.38 | 9250 |  | O=S(=O)(c1cc2ccccc2n1S(=O)(=O)c1ccccc1F)N1CCC(CNS(=O)(=O)C(F)(F)F)CC1 |
|  | 413 |  | O=S(=O)(c1cc2ccccc2n1S(=O)(=O)c1ccccc1F)N1CCC2(CC1)C[C@@H]2NS(=O)(=O)C(F)(F)F |
| 452 | 117 |  | O=S(=O)(c1cc2ccccc2n1S(=O)(=O)c1ccccc1F)N1CCC2(CC(NS(=O)(=O)C(F)(F)F)C2)C1 (configuration not stated) |
| 8430 | 12 |  | O=S(=O)(c1cc2ccccc2n1S(=O)(=O)c1ccccc1F)N1CCC2(CC1)CN(S(=O)(=O)C(F)(F)F)C2 |
| 3.1 | 630 |  | CC[C@]1(CNS(=O)(=O)C(F)(F)F)CCN(S(=O)(=O)c2cc3ccccc3n2S(=O)(=O)c2ccccc2F)C[C@H]1C |
| 0.35 | 6720 |  | CC1(CNS(=O)(=O)C(F)(F)F)CCN(S(=O)(=O)c2cc3ccccc3n2S(=O)(=O)c2ccccc2F)CC1 |
| 0.2 | 4380 |  | O=S(=O)(c1cc2ccccc2n1S(=O)(=O)c1ccccc1F)N1CCC(O)(CNS(=O)(=O)C(F)(F)F)CC1 |
| 1.8 | 2520 |  | CCCC1(CNS(=O)(=O)C(F)(F)F)CCN(S(=O)(=O)c2cc3ccccc3n2S(=O)(=O)c2ccccc2F)CC1 |
| 1.5 | 6670 |  | C[C@@H]1CN(S(=O)(=O)c2cc3ccccc3n2S(=O)(=O)c2ccccc2F)CC[C@@H]1CNS(=O)(=O)C(F)(F)F |
